Measured values from patent US20100240764A1, “Use of S-Clenbuterol” (EUCRO EUROPEAN CONTRACT RESEARCH GMBH & CO. KG, priority 2005, published 2010).

What was measured:
rat uterus = conditions: Clenbuterol isomers; literature; cited from earlier work
[1] = literature, Eur J Pharmacol 117 (1985) 127-129; cited from earlier work
hippocampal neurons [2] = assay: Staurosporine (STS)-induced apoptosis in cultured hippocampal neurons, Hoechst 33258 nuclear staining; format: cell-based, rat; conditions: 10 μM enantiomer added before STS 200 nM; apoptotic nuclei quantified 18 h after exposure; vs STS-treated controls (FIG. 1)
Description: (§1) Neuronal cultures. Mixed primary cultures of hippocampal neurons and glial cells were prepared from neonatal Fischer 344 rats as described in Brain Research 1717 (1996) 44-54. Experiments were carried out after 10 days in culture. The NMDA antagonist memantine (Merz, Germany) and clenbuterol were applied 1 h or 5 h before exposure of the cells to glutamate (500 μmol/L, 1 h), respectively. For induction of excitotoxic cell death, medium (conditioned medium) was collected and glutamate-containing medium was added, and then exchanged again after 1 h by the conditioned ? enantiomeres were present in the culture medium also during and after exposure to glutamate. For induction of apoptosis, neurons were exposed to staurosporine (STS, 200 nmol/L, Sigma) […]. Cell death was determined by the trypan blue exclusion method or after staining the nuclei with the DNA-binding fluorochrom Hoechst 33258 as in Brain Research 1717 (1996) 44-54 and in STROKE 2004, 35: 1197-1202.
The protective effects of the clenbuterol enantiomers in cultured neurons exposed to STS (200 nM) which induced apoptosis or glutamate (500 μM) which induced ecitotoxic cell death with morphological features of necrosis. The Clenbuterol enantiomeres were added to the culture medium at a concentration of 10 μM h before the onset of apoptotic or excitotoxic stress. […]

hippocampal neurons [3] = assay: Glutamate-induced excitotoxic cell death in cultured hippocampal neurons, trypan blue exclusion; format: cell-based, rat; conditions: 10 μM, glutamate 500 μM for 1 h; for protection of neurons against glutamate excitotoxic insult: trypan blue-stained cultures 18 h after exposure (FIG. 2)
Description: as §1
The protective effects of the clenbuterol enantiomers in cultured neurons exposed to STS (200 nM) which induced apoptosis or glutamate (500 μM) which induced ecitotoxic cell death with morphological features of necrosis. The Clenbuterol enantiomeres were added to the culture medium at a concentration of 10 μM h before the onset of apoptotic or excitotoxic stress. […] Further, it was investigated whether such differences in the protective effect of the clenbuterol enantiomers could also be observed in a paradigm of necrotic cell death induced by glutamate.

[4] = literature, Eur J Pharmacol 446 (2002) 25-36; cited from earlier work

Row | SMILES | relaxant response in rat uterus (rat uterus) | activity in psychopharmacological tests (CNS-effect) [1] | STS-induced neuronal cell death (apoptotic nuclei) (hippocampal neurons [2]) | protection of neurons against glutamate excitotoxic insult (hippocampal neurons [3]) | effects in preclinical models of neuroprotection [4] | number of trypan blue positive neurons (hippocampal neurons [3]; 18 h after exposure)
1 | CC(C)(C)NC[C@H](O)c1cc(Cl)c(N)c(Cl)c1 [R-clenbuterol] | shows the effect | based only on the (−)-enantiomer | did not affect STS-induced apoptosis | did not show any protective effect |  | 
2 | CC(C)(C)NCC(O)c1cc(Cl)c(N)c(Cl)c1 (racemic) [racemic Clenbuterol, Clenbuterol] |  |  |  |  | positive effects | 
3 | CC(C)(C)NC[C@@H](O)c1cc(Cl)c(N)c(Cl)c1 [S-Clenbuterol] | not involved in the effects | did not show any CNS-effect | significantly attenuated STS-induced neuronal cell death | significantly protected the neurons against the excitotoxic insult |  | reduced the number of trypan blue positive neurons to control levels
